According to ChEMBL document CHEMBL4330131, “The identification of novel small-molecule inhibitors targeting WDR5-MLL1 interaction through fluorescence polarization based high-throughput screening” (Bioorg Med Chem Lett, 2019):

What was measured:
[1] = target: T1, WD repeat-containing protein 5 (Homo sapiens, UniProt P61964); assay: Displacement of fluorescence-labelled Ac-ARA peptide from WDR5 (unknown origin) by fluorescence polarization assay
[2] = target: T1, WD repeat-containing protein 5; assay: Displacement of 5-FAM labelled tracer from WDR5 (unknown origin) by fluorescence polarization assay
[3] = target: T1, WD repeat-containing protein 5; assay: Displacement of Ac-ARTEVHLRKS-(Ahx)-(Ahx)-K(5-FAM)-NH2 from recombinant full-length human N-terminal His6-tagged WDR5 (1 to 334 residues) expressed in Escherichia coli BL21 (DE3) after 2 hrs by fluorescence polarization assay
[4] = target: Histone-lysine N-methyltransferase 2D (Homo sapiens, UniProt O14686); assay: Inhibition of MLL2 (unknown origin) using SAM as substrate preincubated for 15 mins followed by substrate addition and measured after 1 hr by Alphalisa assay
[5] = target: Protein arginine N-methyltransferase 1 (Homo sapiens, UniProt Q99873); assay: Inhibition of PRMT1 (unknown origin) using SAM as substrate preincubated for 15 mins followed by substrate addition and measured after 1 hr by Alphalisa assay
[6] = target: Histone-lysine N-methyltransferase SETD1B (Homo sapiens, UniProt Q9UPS6); assay: Inhibition of SETD1B (unknown origin) using SAM as substrate preincubated for 15 mins followed by substrate addition and measured after 1 hr by Alphalisa assay
[7] = target: T2, Histone-lysine N-methyltransferase EHMT2 (Homo sapiens, UniProt Q96KQ7); assay: Inhibition of G9a (unknown origin) using SAM as substrate preincubated for 15 mins followed by substrate addition and measured after 1 hr by Alphalisa assay
T2 sequence (Q96KQ7 whole entry): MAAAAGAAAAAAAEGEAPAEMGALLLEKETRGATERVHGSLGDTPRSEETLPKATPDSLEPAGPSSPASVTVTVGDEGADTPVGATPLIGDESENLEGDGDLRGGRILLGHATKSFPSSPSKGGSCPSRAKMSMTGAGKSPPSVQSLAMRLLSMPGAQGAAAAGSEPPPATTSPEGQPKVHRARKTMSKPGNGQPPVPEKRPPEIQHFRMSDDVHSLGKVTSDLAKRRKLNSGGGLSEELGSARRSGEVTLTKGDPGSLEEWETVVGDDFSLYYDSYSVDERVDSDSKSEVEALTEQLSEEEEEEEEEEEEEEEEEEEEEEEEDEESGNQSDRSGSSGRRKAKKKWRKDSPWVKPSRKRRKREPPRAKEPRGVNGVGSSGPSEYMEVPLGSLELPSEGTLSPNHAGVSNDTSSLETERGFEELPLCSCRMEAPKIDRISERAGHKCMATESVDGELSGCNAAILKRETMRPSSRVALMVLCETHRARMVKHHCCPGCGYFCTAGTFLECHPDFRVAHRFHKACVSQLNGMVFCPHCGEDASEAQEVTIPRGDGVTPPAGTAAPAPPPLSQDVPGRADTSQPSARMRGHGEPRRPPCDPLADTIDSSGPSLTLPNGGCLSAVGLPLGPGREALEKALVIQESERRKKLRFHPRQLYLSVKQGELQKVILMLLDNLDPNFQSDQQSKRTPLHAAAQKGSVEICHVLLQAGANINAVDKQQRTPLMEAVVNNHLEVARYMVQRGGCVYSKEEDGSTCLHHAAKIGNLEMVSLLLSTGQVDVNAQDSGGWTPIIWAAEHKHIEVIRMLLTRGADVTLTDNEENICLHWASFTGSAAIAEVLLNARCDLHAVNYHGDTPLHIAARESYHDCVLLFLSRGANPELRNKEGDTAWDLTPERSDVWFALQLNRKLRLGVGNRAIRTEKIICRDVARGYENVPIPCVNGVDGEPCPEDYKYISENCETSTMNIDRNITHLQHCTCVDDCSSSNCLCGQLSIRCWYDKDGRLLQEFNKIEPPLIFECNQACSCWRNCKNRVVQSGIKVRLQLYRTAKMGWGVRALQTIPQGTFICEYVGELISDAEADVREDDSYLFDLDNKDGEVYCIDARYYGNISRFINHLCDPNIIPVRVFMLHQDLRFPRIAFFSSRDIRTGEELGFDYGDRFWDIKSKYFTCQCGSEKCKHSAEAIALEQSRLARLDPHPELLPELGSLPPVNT

[8] = target: T1, WD repeat-containing protein 5; assay: Binding affinity to recombinant full-length human N-terminal His6-tagged WDR5 (1 to 334 residues) expressed in Escherichia coli BL21 (DE3) by surface plasmon resonance analysis
MV4-11 = assay: Antiproliferative activity against human MV4-11 cells harboring MLL-AF4 fusion protein assessed as cell growth inhibition after 5 days by Celltiter-Glo luminescent assay; format: functional, cell-based; details: MV4-11, 120 h
K562 = assay: Antiproliferative activity against human K562 cells assessed as cell growth inhibition after 5 days by Celltiter-Glo luminescent assay; format: functional, cell-based; details: K562, 120 h

Protein arginine N-methyltransferase 1, sequence (Q99873 whole entry): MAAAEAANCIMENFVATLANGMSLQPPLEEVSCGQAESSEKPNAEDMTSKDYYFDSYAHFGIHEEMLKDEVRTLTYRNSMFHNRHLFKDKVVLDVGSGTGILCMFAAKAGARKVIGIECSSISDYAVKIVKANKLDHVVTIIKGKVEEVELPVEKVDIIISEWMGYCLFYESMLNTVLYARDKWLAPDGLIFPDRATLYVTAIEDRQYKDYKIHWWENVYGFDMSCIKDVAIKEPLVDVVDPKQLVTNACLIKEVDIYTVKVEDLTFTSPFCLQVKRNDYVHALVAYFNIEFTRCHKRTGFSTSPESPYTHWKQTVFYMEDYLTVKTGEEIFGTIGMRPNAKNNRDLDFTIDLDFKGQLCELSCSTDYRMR
Histone-lysine N-methyltransferase SETD1B, sequence (Q9UPS6 whole entry): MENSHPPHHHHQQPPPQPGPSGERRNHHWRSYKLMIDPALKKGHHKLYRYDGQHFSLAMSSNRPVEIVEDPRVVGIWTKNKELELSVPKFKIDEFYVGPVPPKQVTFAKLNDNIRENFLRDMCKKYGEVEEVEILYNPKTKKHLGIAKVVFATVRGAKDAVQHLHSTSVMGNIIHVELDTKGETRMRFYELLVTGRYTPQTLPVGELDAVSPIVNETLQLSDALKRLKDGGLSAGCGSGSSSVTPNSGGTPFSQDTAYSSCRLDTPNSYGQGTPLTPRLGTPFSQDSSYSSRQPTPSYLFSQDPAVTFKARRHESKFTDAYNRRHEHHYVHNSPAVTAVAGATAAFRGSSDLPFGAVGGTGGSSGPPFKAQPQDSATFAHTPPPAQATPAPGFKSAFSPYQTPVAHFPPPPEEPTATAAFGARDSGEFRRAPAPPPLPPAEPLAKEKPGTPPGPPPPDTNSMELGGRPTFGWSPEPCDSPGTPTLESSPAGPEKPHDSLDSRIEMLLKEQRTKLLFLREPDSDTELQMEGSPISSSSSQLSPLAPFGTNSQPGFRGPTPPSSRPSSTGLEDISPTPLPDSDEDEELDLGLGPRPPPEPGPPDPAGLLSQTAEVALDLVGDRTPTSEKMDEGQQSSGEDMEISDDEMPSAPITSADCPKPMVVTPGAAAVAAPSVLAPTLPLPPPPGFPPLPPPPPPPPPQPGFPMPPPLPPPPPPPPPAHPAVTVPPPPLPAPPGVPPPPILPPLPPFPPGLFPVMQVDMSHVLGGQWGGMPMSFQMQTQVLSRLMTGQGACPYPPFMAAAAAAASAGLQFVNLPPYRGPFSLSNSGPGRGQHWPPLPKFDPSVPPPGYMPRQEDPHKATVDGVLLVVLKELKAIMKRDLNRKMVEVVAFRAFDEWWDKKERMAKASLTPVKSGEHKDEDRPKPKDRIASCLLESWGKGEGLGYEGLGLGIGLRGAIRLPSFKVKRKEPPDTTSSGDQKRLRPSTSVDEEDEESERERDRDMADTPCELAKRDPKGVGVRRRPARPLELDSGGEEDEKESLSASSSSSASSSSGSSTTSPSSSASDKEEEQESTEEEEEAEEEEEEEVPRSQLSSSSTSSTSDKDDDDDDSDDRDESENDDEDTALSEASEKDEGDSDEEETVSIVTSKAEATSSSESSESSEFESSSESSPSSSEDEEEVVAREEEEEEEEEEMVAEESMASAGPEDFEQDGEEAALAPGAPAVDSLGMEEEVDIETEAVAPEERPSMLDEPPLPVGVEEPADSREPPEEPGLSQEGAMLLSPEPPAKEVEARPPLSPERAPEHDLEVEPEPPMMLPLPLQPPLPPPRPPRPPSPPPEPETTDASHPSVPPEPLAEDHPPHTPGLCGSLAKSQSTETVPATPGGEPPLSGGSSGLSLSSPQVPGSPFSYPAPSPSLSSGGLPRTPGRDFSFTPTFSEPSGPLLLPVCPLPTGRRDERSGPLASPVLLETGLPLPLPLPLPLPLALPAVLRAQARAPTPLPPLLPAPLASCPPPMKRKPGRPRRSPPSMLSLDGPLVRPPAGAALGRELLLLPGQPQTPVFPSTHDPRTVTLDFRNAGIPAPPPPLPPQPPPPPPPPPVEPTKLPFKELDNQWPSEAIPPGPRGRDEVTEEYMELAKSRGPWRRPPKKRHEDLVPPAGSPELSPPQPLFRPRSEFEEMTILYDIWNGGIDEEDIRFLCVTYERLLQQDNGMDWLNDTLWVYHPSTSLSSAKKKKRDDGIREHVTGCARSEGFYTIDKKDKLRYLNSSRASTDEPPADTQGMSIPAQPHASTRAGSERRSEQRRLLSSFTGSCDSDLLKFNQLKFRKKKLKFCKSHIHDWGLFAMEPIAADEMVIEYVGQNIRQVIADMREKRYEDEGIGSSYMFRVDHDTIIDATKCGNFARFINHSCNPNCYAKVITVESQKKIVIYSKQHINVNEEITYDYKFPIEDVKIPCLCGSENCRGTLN

CCC(CC)(NC(=O)C(C)C)C(=O)N[C@@H](CCCNC(=N)N)C(=O)NC1(C(=O)NC(c2ccc(Cl)cc2)c2ccc(Cl)cc2)CCCC1 gave an IC50 [1] of 0.0045 µM and a Ki [2] of less than 0.001 µM.

COc1ccc(S(=O)(=O)Nc2ccc(C(=O)O)cc2)cc1C(C)(C)C showed an IC50 [3] of 48 µM.

CCCCOc1ccc(S(=O)(=O)Nc2cccc(C(=O)O)c2)cc1C was tested, and the IC50 [3] was 30 µM.

Work on Cc1c(Cl)ccc(S(=O)(=O)Nc2cccc(C(=O)O)c2)c1Cl yielded an IC50 [3] of 13 to 13.1 µM.

In the case of CCCCOc1ccc(S(=O)(=O)Nc2ccc(C(=O)O)cc2)cc1C, the IC50 [3] is reported as 13 µM, the IC50 [4] is reported as greater than 100 µM and the IC50 [5] is reported as greater than 100 µM. It also gave an IC50 [6] greater than 100 µM, an IC50 [7] greater than 100 µM and a Kd [8] of 15.8 µM. The IC50 (MV4-11) was 31.2 µM and the IC50 (K562) was 72.1 µM.

O=C(O)c1cc(NS(=O)(=O)c2ccc(Cl)cc2)cc(C(=O)O)c1 gave an IC50 [3] of 22 µM.

CCCCOc1ccc(S(=O)(=O)Nc2ccccc2C(=O)O)cc1C gave an IC50 [3] of 22 µM.
